Source: PubChem BioAssay AID1918996 (Molecular Pharmacology Branch, DTP, NCI, 2023)

Tested on: 349418-098-R-PDC complex spheroid growth
Experiment: Anticancer human tumor 349418-098-R-PDC patient-derived lung adenocarcinoma cell line growth inhibition [AhR]
Settings: for IC50: curve of first compound; for viability, T/C: stronger effect = lower value
Text: Multicellular complex tumor spheroid response to aryl hydrocarbon receptor antagonists in combination with a variety of drugs and investigational agents in selected tumor cell lines
The current study was undertaken to assess response to aryl hydrocarbon receptor antagonists in combination with standard-of-care drugs and investigational agents in solid tumor complex spheroid models. Complex spheroids include a stromal component modeled by human endothelial cells (HUVEC) and fibroblasts modeled by human mesenchymal stem cells (MSCs). The concentration ranges selected for each drug and investigational agent were based upon clinically achievable concentrations if the clinical Cmax of the agent was known.
Compounds. The drugs and investigational agents: BAY 2416964 (NSC825713), GNF351 (NSC835774), CH-223191 (NSC835775), CPI-455 (NSC825282), aza-TdCyd (NSC777586), decitabine (NSC127716), belinostat (NSC758774), entinostat (NSC756642), pevonedistat (NSC761192), tazemetostat (NSC777109), talazoparib (NSC765396), olaparib (NSC753686), selinexor (NSC780203), nedisertib (M3814, NSC802822), bortezomib (NSC756655), venetoclax (NSC766270), doxorubicin (NSC123127), elimusertib (BAY189344, NSC800525), ceralasertib (AZD6738, NSC777638), TAK-243 (NSC785004), alisertib (NSC759677), etoposide (NSC141540), topotecan (NSC609699), eribulin (NSC707389), gemcitabine (NSC613327), carboplatin (NSC241240), cisplatin (NSC119875), and SN-38 (NSC673596) were obtained from the National Cancer Institute (NCI) Developmental Therapeutics Program Chemical Repository (32). The FDA-approved anticancer drug set is available from the Developmental Therapeutics Program at https://dtp.cancer.gov/organization/dscb/obtaining/available plates.htm. […] The stock solutions were prepared in dimethyl sulfoxide (DMSO, Sigma-Aldrich, St. Louis, MO, cat. D2650), except for the platinum compounds which were prepared in saline (Quality Biological, Gaithersburg, MD, cat. 114-055-101), at 800-fold the tested concentration and stored at -70 degrees C prior to their use. All drugs and investigational agents were tested over a range starting from a high concentration at or near the clinical Cmax and decreasing in half-log increments. If the clinical Cmax for an agent had not been determined, the highest concentration tested was 10 microM (Table 1).
Cell Culture. All cells were maintained in an incubator at 37 degrees C and 5% CO2 with 95% humidity. The PDC lines were cultured according to standard operating procedures established by the NCI PDMR (https://pdmr.cancer.gov). Briefly, all PDCs were thawed and cultured in Matrigel-coated flasks prepared with a working solution of 1X Ham's F-12 nutrient mix, without supplementation (Invitrogen, Waltham, MA, cat. 11765054), 100 U/mL penicillin-streptomycin (Invitrogen, cat. 15140122), and 2.5% Matrigel (Corning Inc., Corning, NY, cat. 354248) for the first three passages. All PDCs were cultured in complete DMEM/F-12 media containing advanced DMEM/F-12 (Invitrogen, cat. 12634028), 4.9% defined fetal bovine serum, heat inactivated (HyClone Laboratories Inc., Logan, UT, cat. SH30070.03HI), 389 ng/mL hydrocortisone (Sigma-Aldrich, cat. H4001), 9.7 ng/mL human EGF recombinant protein (Invitrogen, cat. PHG0313), 23.4 microg/mL adenine (Sigma-Aldrich, cat. A2786), 97.3 U/mL penicillin-streptomycin (Invitrogen, cat. 15140122), 1.9 mM L-glutamine (Invitrogen, cat. 25030081), and 9.7 microM Y-27632 dihydrochloride (Tocris Bioscience, Bristol, United Kingdom, cat. 1254). The PDCs were cultured in complete DMEM/F12 media without 10 microM Y-27632 dihydrochloride for at least two passages prior to the screen. The established cell lines NCI-H1341 and […] were cultured in DMEM/F-12, HEPES (Invitrogen, cat. 11330032), 5% defined fetal bovine serum (HyClone Laboratories Inc., cat. SH30070.03), ITS premix universal culture supplement [insulin (5 microg/mL), transferrin (5 microg/mL), and selenious acid (5 ng/mL)] […]
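Note: spheroids exposed to agents for seven days before luminescence viability read.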
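Throughout, for viability, T/C: spheroids also contain HUVEC endothelial cells and human MSC stroma.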

CCN(c1cc(-c2ccc(CN3CCOCC3)cc2)cc(C(=O)NCc2c(C)cc(C)[nH]c2=O)c1C)C1CCOCC1 + CC(CO)NC(=O)c1cc(-c2ccc(Cl)cc2)nn(-c2cnn(C)c2)c1=O
IC50 (second compound 0.1 µM): > 3000 nM | IC50 (second compound 0.316 µM): > 3000 nM | IC50 (second compound 1 µM): > 3000 nM | IC50 (second compound 3.16 µM): > 3000 nM | IC50 (second compound 10 µM): 273 nM | viability, T/C (second compound 0.1 µM, first compound 0.00949 µM): 110% | viability, T/C (second compound 0.1 µM, first compound 0.03 µM): 110% | viability, T/C (second compound 0.1 µM, first compound 0.0949 µM): 86.7% | viability, T/C (second compound 0.1 µM, first compound 0.3 µM): 79.4% | viability, T/C (second compound 0.1 µM, first compound 0.949 µM): 87.1% | viability, T/C (second compound 0.1 µM, first compound 3 µM): 74.7% | viability, T/C (second compound 0.316 µM, first compound 0.00949 µM): 95% | viability, T/C (second compound 0.316 µM, first compound 0.03 µM): 118% | viability, T/C (second compound 0.316 µM, first compound 0.0949 µM): 107% | viability, T/C (second compound 0.316 µM, first compound 0.3 µM): 89.2% | viability, T/C (second compound 0.316 µM, first compound 0.949 µM): 96% | viability, T/C (second compound 0.316 µM, first compound 3 µM): 76.1% | viability, T/C (second compound 1 µM, first compound 0.00949 µM): 114% | viability, T/C (second compound 1 µM, first compound 0.03 µM): 123% | viability, T/C (second compound 1 µM, first compound 0.0949 µM): 107% | viability, T/C (second compound 1 µM, first compound 0.3 µM): 76.2% | viability, T/C (second compound 1 µM, first compound 0.949 µM): 95.1% | viability, T/C (second compound 1 µM, first compound 3 µM): 59.7% | viability, T/C (second compound 3.16 µM, first compound 0.00949 µM): 77.5% | viability, T/C (second compound 3.16 µM, first compound 0.03 µM): 63.4% | viability, T/C (second compound 3.16 µM, first compound 0.0949 µM): 72.4% | viability, T/C (second compound 3.16 µM, first compound 0.3 µM): 67.9% | viability, T/C (second compound 3.16 µM, first compound 0.949 µM): 41.9% | viability, T/C (second compound 3.16 µM, first compound 3 µM): 70.4% | viability, T/C (second compound 10 µM, first compound 0.00949 µM): 54.2% | viability, T/C (second compound 10 µM, first compound 0.03 µM): 79% | viability, T/C (second compound 10 µM, first compound 0.0949 µM): 85.6% | viability, T/C (second compound 10 µM, first compound 0.3 µM): 40.5% | viability, T/C (second compound 10 µM, first compound 0.949 µM): 55.5% | viability, T/C (second compound 10 µM, first compound 3 µM): 47.9%

COc1ccc([C@@H](O)c2cc(-c3ncnc4cc(N5CCOCC5)ccc34)c(F)cc2Cl)nn1 + Cc1ccccc1N=Nc1ccc(NC(=O)c2ccnn2C)c(C)c1
IC50 (second compound 0.1 µM): 1460 nM | IC50 (second compound 0.316 µM): 816 nM | IC50 (second compound 1 µM): 945 nM | IC50 (second compound 3.16 µM): 775 nM | IC50 (second compound 10 µM): 356 nM | viability, T/C (second compound 0.1 µM, first compound 0.0316 µM): 96.9% | viability, T/C (second compound 0.1 µM, first compound 0.1 µM): 102% | viability, T/C (second compound 0.1 µM, first compound 0.316 µM): 76.2% | viability, T/C (second compound 0.1 µM, first compound 1 µM): 62.8% | viability, T/C (second compound 0.1 µM, first compound 3.16 µM): 29.8% | viability, T/C (second compound 0.1 µM, first compound 10 µM): 11.7% | viability, T/C (second compound 0.316 µM, first compound 0.0316 µM): 76.4% | viability, T/C (second compound 0.316 µM, first compound 0.1 µM): 99.5% | viability, T/C (second compound 0.316 µM, first compound 0.316 µM): 63.1% | viability, T/C (second compound 0.316 µM, first compound 1 µM): 47.3% | viability, T/C (second compound 0.316 µM, first compound 3.16 µM): 23.1% | viability, T/C (second compound 0.316 µM, first compound 10 µM): 11% | viability, T/C (second compound 1 µM, first compound 0.0316 µM): 74.1% | viability, T/C (second compound 1 µM, first compound 0.1 µM): 91.7% | viability, T/C (second compound 1 µM, first compound 0.316 µM): 81.6% | viability, T/C (second compound 1 µM, first compound 1 µM): 45.5% | viability, T/C (second compound 1 µM, first compound 3.16 µM): 28.2% | viability, T/C (second compound 1 µM, first compound 10 µM): 12% | viability, T/C (second compound 3.16 µM, first compound 0.0316 µM): 73.8% | viability, T/C (second compound 3.16 µM, first compound 0.1 µM): 77.2% | viability, T/C (second compound 3.16 µM, first compound 0.316 µM): 58% | viability, T/C (second compound 3.16 µM, first compound 1 µM): 49.4% | viability, T/C (second compound 3.16 µM, first compound 3.16 µM): 25.1% | viability, T/C (second compound 3.16 µM, first compound 10 µM): 12.7% | viability, T/C (second compound 10 µM, first compound 0.0316 µM): 63.2% | viability, T/C (second compound 10 µM, first compound 0.1 µM): 45.6% | viability, T/C (second compound 10 µM, first compound 0.316 µM): 58.6% | viability, T/C (second compound 10 µM, first compound 1 µM): 31.9% | viability, T/C (second compound 10 µM, first compound 3.16 µM): 21.3% | viability, T/C (second compound 10 µM, first compound 10 µM): 10%
